Reference: patent US20220274973A1, “Methods And Compositions For Treating Sickle Cell Disease With A Ferroportin Inhibitor (VIT-2763)” (Vifor (International) AG, priority 2019, published 2022)

Test: Rodent PK studies, oral dosing
Assay type: in vivo

systemic availability: systemically available
Compound: O=C(NCc1ncccc1F)c1coc(CCNCCc2nc3ccccc3[nH]2)n1 [Compound 127]
